Among the data in patent US12497386B2, “Estrogen receptor-modulating compounds” (RADIUS PHARMACEUTICALS, INC., priority 2018, dated 2025) are IC50 and wet uterine weight values, retold here.

One assay deals with MCF-7 cells. Kind of assay: MCF-7 Proliferation Inhibition Assay. The conditions noted are these: Homo sapiens, MCF7, 168 h, 10 pM dose of E2, 7 days incubation, CellTiterGlo viability. The class given is cell-based, human. The procedure:
Proliferation Assay in MCF-7 and T47D Cells
MCF-7 and T47D cells were stripped for 3 days in phenol red-free RPMI1640 media containing 10% charcoal-stripped fetal bovine serum (CS-FBS) and 1% Penicillin/streptomycin (P/S). Cells (volume of 90 μl/well) were seeded in 96 well plates at a density of 2500 cells/well for MCF-7 cells and 1500 cells/well for T47D cells. On the following day, plates were treated with the test compounds (10× concentration in media, volume of 10 μl/well added) both in the absence and in the presence of two doses of E2 (10 pM and 1 nM). The cells were incubated with test compounds for 7 days. The viability of the cells was assessed using CellTiterGlo (Promega, Cat #G7573) according to the manufacturer's instructions. Growth inhibition curves and IC50 values were calculated using the GraphPadPrism 6.0 software. Data values shown in Table 1 were obtained using the 10 pM dose of E2.
Background: ATP-based viability assays read luminescence as a measure of living cells.

Assay [1] has as its system E2-induced increase in uterine weight in immature rats. Kind of assay: Immature Rat Uterine Assay. The class given is in vivo, Sprague-Dawley rat. Particulars: oral dose of 3 mg/kg in combination with E2 (0.01 mg/kg), once daily for three consecutive days. The procedure: Immature Rat Uterine Assay
Sprague-Dawley rat pups were weaned at 19 days of age, randomized into groups (n=6), and administered vehicle (aqueous 20% HPBCD, 10% PEG400 in H2O), E2 (0.01 mg/kg), test compounds (0.1 mg/kg-3 mg/kg) in combination with E2 (0.01 mg/kg), either by subcutaneous injection or by oral gavage, once daily for three consecutive days. Twenty-four hours after the final dose, all animals were killed by carbon dioxide inhalation. Body weights and wet uterine weights were recorded for each animal. GraphPadPrism 6.0 software was used to analyze data.

One may read the IC50 as the concentration that inhibits the measured activity by half.

The molecule `CCCNCCc1ccc(Cn2c(-c3ccccc3C)c(F)c3c4cn[nH]c4ccc32)cc1` [Compound D-91, N-(4-((8-fluoro-7-(o-tolyl)pyrrolo[3,2-e]indazol-6(3H)-yl)methyl)phenethyl)propan-1-amine] gave a concentration for half-maximal inhibition (IC50) in the assay with MCF-7 cells of less than 1 nM.
Still for that read-out and setting: in the case of `CCCNCCc1ccc(Cn2c(-c3ccc(OC)cc3C)c(F)c3cc(O)ccc32)cc1` [Compound D-96, 3-Fluoro-2-(4-methoxy-2-methylphenyl)-1-(4-(2-(propylamino)ethyl)benzyl)-1H-indol-5-ol] it was less than 1 nM; in that of `Cc1ccccc1-c1c(F)c2c3cn[nH]c3ccc2n1Cc1ccc(CCNCCF)cc1` [Compound D-101, 2-Fluoro-N-(4-((8-fluoro-7-(o-tolyl)pyrrolo[3,2-e]indazol-6(3H)-yl)methyl)phenethyl)ethan-1-amine], less than 1 nM.
In the assay on MCF-7 cells, `Cc1ccccc1-c1c(F)c2c3cn[nH]c3ccc2n1Cc1ccc(CCNCCCF)cc1` [Compound D-102, 3-Fluoro-N-(4-((8-fluoro-7-(o-tolyl)pyrrolo[3,2-e]indazol-6(3H)-yl)methyl)phenethyl)propan-1-amine] yielded a concentration for half-maximal inhibition (IC50) of less than 1 nM. Moreover, the wet uterine weight result in assay [1] is given as “suppressed wet uterine weight to baseline”.
Take `COc1ccc(-c2c(F)c3cc(O)ccc3n2Cc2ccc(CCNCCF)cc2)c(C)c1` [Compound D-103, 3-Fluoro-1-(4-(2-((2-fluoroethyl)amino)ethyl)benzyl)-2-(4-methoxy-2-methylphenyl)-1H-indol-5-ol]: in the assay with MCF-7 cells, the IC50 was less than 1 nM.
`COc1ccc(-c2c(F)c3cc(O)ccc3n2Cc2ccc(CCNCCCF)cc2)c(C)c1` [Compound D-104, 3-Fluoro-1-(4-(2-((3-fluoropropyl)amino)ethyl)benzyl)-2-(4-methoxy-2-methylphenyl)-1H-indol-5-ol]: the IC50 in the assay with MCF-7 cells is less than 1 nM.
As for `CCNCCc1ccc([C@@H]2c3ccc(O)cc3CC[C@@H]2c2ccccc2)cc1` [LA-18, (5R,6S)-5-(4-(2-(Ethylamino)ethyl)phenyl)-6-phenyl-5,6,7,8-tetrahydronaphthalen-2-ol], in the assay with MCF-7 cells, the IC50 is less than 1 nM.
Still for that read-out and setting: in the case of `Oc1ccc2c(c1)CC[C@H](c1ccccc1)[C@@H]2c1ccc(CCNCC2CC2)cc1` [LA-19, (5R,6S)-5-(4-(2-((Cyclopropylmethyl)amino)ethyl)phenyl)-6-phenyl-5,6,7,8-tetrahydronaphthalen-2-ol] it was less than 1 nM; in that of `CCNCCc1ccc([C@@H]2c3ccc(O)cc3CC[C@@H]2c2ccccc2C)cc1` [LA-21, (5R,6S)-5-(4-(2-(Ethylamino)ethyl)phenyl)-6-(o-tolyl)-5,6,7,8-tetrahydronaphthalen-2-ol], less than 1 nM.
On the same count and under the same terms, in the case of `Cc1ccccc1[C@H]1CCc2cc(O)ccc2[C@H]1c1ccc(CCNCC2CC2)cc1` [LA-22, (5R,6S)-5-(4-(2-((cyclopropylmethyl)amino)ethyl)phenyl)-6-(o-tolyl)-5,6,7,8-tetrahydronaphthalen-2-ol] it was less than 1 nM; in that of `CCNCCc1ccc(C2c3ccc(O)cc3CCC2c2ccc(C(C)C)cc2)cc1` (centres unmarked) [LA-31, 5-(4-(2-(Ethylamino)ethyl)phenyl)-6-(4-isopropylphenyl)-5,6,7,8-tetrahydronaphthalen-2-ol], less than 1 nM; in that of `CCCNCCc1ccc(C2c3ccc(O)cc3CCC2c2ccc(C(C)C)cc2)cc1` (centres unmarked) [LA-32, 6-(4-Isopropylphenyl)-5-(4-(2-(propylamino)ethyl)phenyl)-5,6,7,8-tetrahydronaphthalen-2-ol], less than 1 nM.
Turning to `CC(C)c1ccc(C2CCc3cc(O)ccc3C2c2ccc(CCNCC3CC3)cc2)cc1` (centres unmarked) [LA-33, 5-(4-(2-((Cyclopropylmethyl)amino)ethyl)phenyl)-6-(4-isopropylphenyl)-5,6,7,8-tetrahydronaphthalen-2-ol], the IC50 in the assay with MCF-7 cells is less than 1 nM.
